Measurements published in patent US20220347175A1, “PYRIDAZINONE DERIVATIVE” (Sumitomo Dainippon Pharma Co., Ltd., priority 2018, published 2022).

Columns and labels:
human Nav1.1 = molecular target: T1, human Nav1.1 (Homo sapiens, UniProt P35498); assay: Amplification of Nav1.1-derived voltage-dependent sodium current (Nav1.1 current), cell line stably expressing human Nav1.1, automated patch clamp; assay type: cell-based
T1 construct: host or cells: HEK293
Procedure, shortened: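 Automated whole-cell voltage-clamp recordings used HEK293 cells stably expressing human Nav1.1, keeping only cells with >500 pA current, with currents evoked by ramp voltage. Compounds were applied in extracellular fluid with 1% DMSO, and amplification (%) was computed from peak current or AUC after versus before addition.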

human Nav1.5 = molecular target: T2, human Nav1.5 (Homo sapiens, UniProt Q14524); assay: Amplification of Nav1.5-derived voltage-dependent sodium current (Nav1.5 current), cell line stably expressing human Nav1.5, automated patch clamp; assay type: cell-based
T2 construct: expressed in transfected cells; host or cells: CHO-K1 (T-REx System, ThermoFisher Scientific)
T2 sequence (Q14524 1-2015 isoform Q14524-2): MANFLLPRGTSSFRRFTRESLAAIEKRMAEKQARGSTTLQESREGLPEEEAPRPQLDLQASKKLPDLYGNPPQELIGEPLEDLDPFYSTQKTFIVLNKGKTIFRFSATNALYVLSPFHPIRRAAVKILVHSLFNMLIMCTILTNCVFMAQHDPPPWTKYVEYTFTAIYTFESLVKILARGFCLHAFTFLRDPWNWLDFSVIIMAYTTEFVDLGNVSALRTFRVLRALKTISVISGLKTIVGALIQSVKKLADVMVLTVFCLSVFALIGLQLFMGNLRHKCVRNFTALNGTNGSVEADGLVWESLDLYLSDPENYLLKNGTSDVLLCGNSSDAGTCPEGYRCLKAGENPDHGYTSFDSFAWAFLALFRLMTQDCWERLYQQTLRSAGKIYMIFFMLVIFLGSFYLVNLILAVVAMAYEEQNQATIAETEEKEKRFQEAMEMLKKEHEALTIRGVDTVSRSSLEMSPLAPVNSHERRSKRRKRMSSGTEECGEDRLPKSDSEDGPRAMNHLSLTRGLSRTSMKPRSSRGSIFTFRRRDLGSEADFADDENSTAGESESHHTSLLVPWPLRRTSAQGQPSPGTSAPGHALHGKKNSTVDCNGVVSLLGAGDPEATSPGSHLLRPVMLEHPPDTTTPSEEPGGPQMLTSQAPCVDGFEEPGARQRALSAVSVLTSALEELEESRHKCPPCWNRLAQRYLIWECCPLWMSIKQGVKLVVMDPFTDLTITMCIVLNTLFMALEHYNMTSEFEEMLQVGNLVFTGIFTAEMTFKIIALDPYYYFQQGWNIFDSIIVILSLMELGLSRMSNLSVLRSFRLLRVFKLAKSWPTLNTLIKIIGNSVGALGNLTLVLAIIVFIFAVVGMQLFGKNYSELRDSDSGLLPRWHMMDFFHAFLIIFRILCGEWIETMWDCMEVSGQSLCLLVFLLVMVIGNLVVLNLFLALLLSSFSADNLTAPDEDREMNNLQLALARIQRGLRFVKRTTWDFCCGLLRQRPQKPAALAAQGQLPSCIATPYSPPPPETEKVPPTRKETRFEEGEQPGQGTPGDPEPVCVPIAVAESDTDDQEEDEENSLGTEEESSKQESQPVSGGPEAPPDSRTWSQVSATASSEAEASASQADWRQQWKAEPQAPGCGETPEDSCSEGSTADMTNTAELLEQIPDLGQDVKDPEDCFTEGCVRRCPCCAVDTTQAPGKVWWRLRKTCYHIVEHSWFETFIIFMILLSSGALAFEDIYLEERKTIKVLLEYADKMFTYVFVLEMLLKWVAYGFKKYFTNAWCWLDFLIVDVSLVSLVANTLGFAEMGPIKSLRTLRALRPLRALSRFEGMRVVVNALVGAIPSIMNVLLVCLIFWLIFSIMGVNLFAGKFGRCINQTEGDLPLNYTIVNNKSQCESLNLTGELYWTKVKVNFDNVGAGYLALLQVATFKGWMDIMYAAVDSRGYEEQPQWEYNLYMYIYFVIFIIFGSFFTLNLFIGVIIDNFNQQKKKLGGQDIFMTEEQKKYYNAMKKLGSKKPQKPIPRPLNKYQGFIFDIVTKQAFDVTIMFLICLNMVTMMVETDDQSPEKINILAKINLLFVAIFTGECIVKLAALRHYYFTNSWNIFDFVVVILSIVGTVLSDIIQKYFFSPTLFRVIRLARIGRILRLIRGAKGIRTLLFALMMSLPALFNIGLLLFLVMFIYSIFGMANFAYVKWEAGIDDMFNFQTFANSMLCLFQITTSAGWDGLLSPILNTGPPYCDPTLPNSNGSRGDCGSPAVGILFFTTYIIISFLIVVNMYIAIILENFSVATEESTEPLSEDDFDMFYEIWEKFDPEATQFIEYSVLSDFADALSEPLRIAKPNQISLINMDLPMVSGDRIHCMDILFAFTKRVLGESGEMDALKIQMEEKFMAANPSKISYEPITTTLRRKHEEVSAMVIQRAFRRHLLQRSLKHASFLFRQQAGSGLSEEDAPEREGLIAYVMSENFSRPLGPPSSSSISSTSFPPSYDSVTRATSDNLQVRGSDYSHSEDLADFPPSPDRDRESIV
Description: Test 2: Evaluation of the Amplification in Nav1.5-Derived Voltage-Dependent Sodium Current (Nav1.5 Current) by Using a Cell Line Stably Expressing Human Nav1.5
A CHO-K1 cell line (Chinese hamster ovary) stably expressing human Nav1.5 (Gene Bank Accession No: P000326.2) was obtained by using purchased T-Rex System (ThermoFisher Scientific, USA), and used for the present test. The effect of test compounds on the amplification of Nav1.5 current was evaluated by using a cell line stably expressing human Nav1.5 and HTS automated patch clamp system, similarly in the method using Nav1.1. In other words, test compounds were added in an extracellular fluid which contained 1% DMSO and 500 nmol/L Tetrodotoxin (TTX), and evaluated as a change of the peak value of Nav1.5 current and the area under the curve (AUC). The induction and the measurement of Nav1.5 current, the pharmacologic effect on Nav1.5 current, and a method for pharmacological evaluation were carried out by the same method as in Nav1.1.

[1] = 10 μmol/L compound, change of the area under the curve of Nav1.1 current (Test Result 1), read-out: Nav1.1 current amplification rate (%)
[2] = 10 μmol/L compound, change of the area under the curve of Nav1.5 current (Test Result 1), read-out: Nav1.5 current amplification rate (%)
[3] = 10 μmol/L compound, change of the area under the curve of Nav1.1 current (Test Result 1)
[4] = 10 μmol/L compound, change of the area under the curve of Nav1.5 current (Test Result 1)

| Structure (SMILES) | activation at 10 µM (human Nav1.1; [1]) [%] | Nav1.1 current amplification rate (%) (human Nav1.1; [3]) | activation at 10 µM (human Nav1.5; [2]) [%] | Nav1.5 current amplification rate (%) (human Nav1.5; [4]) | further results |
| --- | --- | --- | --- | --- | --- |
| CC1CC=C(c2ccc(=O)n(CC(=O)N3CCc4c(-c5cccnc5)cccc43)n2)CC1 (racemic) [Example 248] | – | – | – | – | Nav1.1 current amplification rate (%) (human Nav1.1; compound 3 μmol/L, HEK293 stably expressing human Nav1.1): 392%; Nav1.5 current amplification rate (%) (human Nav1.5; compound 3 μmol/L, CHO-K1 stably expressing human Nav1.5): 44% |
| O=C(Cn1nc(N2CCC3(CCC3)CC2)ccc1=O)Nc1ccn2cnnc2c1 [Example 176] | 66 | – | 2 | – | – |
| Cc1cc(NC(=O)Cn2nc(C3=CCC(C)CC3)ccc2=O)cc2ncnn12 (racemic) [Example 352] | – | – | – | – | Nav1.1 current amplification rate (%) (human Nav1.1; compound 1 μmol/L, HEK293 stably expressing human Nav1.1): 155%; Nav1.5 current amplification rate (%) (human Nav1.5; compound 1 μmol/L, CHO-K1 stably expressing human Nav1.5): 34% |
| O=C(Cn1nc(C2=CCC(F)(F)CC2)ccc1=O)Nc1ccn2ccnc2c1 [Example 464] | – | 18 | – | 1 | – |
| CC1CCN(c2ccc(=O)n(CC(=O)Nc3cncc(C(F)(F)F)c3)n2)CC1 [Example 61] | – | 77 | – | 8 | – |
| COc1nc2cc(NC(=O)Cn3nc(C4=CCC(C)(C)CC4)c(OC)cc3=O)ccc2o1 [Example 491] | – | – | – | – | activation at 3 µM (human Nav1.1; compound 3 μmol/L, HEK293 stably expressing human Nav1.1, read-out: Nav1.1 current amplification rate (%)): 157%; activation at 3 µM (human Nav1.5; compound 3 μmol/L, CHO-K1 stably expressing human Nav1.5, read-out: Nav1.5 current amplification rate (%)): 22% |
| CC1CC=C(c2ccc(=O)n(CC(=O)N3CC=C(c4cncnc4)CC3)n2)CC1 (racemic) [Example 398] | – | 175 | – | 29 | – |
| Cc1ccc(-c2ccc(=O)n(CC(=O)Nc3ccc4ocnc4c3)n2)s1 [Example 455] | – | 131 | – | 21 | – |
| O=C(Cn1nc(N2CCC3(CCC3)C2)ccc1=O)Nc1ccn2ccnc2c1 [Example 177] | 169 | – | 16 | – | – |
| N#Cc1cncc(NC(=O)Cn2nc(C3=CCC(F)(F)CC3)ccc2=O)c1 [Example 107] | 37 | – | 24 | – | – |
| CC1CC=C(c2ccc(=O)n(CC(=O)N3CC(C)N(c4cccnc4)C(C)C3)n2)CC1 (centres unmarked) [Example 416] | – | 383 | – | 86 | – |
| CCc1nc2cc(NC(=O)Cn3nc(N4CCC(C)CC4)ccc3=O)ccc2o1 [Example 97] | – | 296 | – | 19 | – |
| O=C(Cn1nc(N2CCC3(CCCC3)CC2)ccc1=O)Nc1ccc2ocnc2c1 [Example 135] | 195 | – | 2 | – | – |
| N#Cc1ccc(NC(=O)Cn2nc(C3=CCC(F)(F)CC3)ccc2=O)cn1 [Example 109] | 57 | – | 23 | – | – |

Further lines, with some results ahead:

| activation at 10 µM (human Nav1.1; [1]) [%] | Nav1.1 current amplification rate (%) (human Nav1.1; [3]) | Structure (SMILES) | activation at 10 µM (human Nav1.5; [2]) [%] | Nav1.5 current amplification rate (%) (human Nav1.5; [4]) | further results |
| --- | --- | --- | --- | --- | --- |
| – | 175 | CC1(C)CC=C(c2ccc(=O)n(CC(=O)N3CCN(c4cncc(F)c4)CC3)n2)C1 [Example 483] | – | 7 | – |
| 205 | – | N#Cc1ccc(NC(=O)Cn2nc(N3CCC4(CCC4)CC3)ccc2=O)cn1 [Example 124] | 70 | – | – |
| 200 | – | O=C(Cn1nc(N2CCC3(CCC3)C2)c(N2CCCC2)cc1=O)Nc1ccc2ocnc2c1 [Example 208] | 18 | – | – |
| – | 148 | COc1cc(C2=CCC(C(F)(F)F)CC2)nn(CC(=O)Nc2ccc3ocnc3c2)c1=O (centres unmarked) [Example 447] | – | 6 | – |
| 318 | – | CN(C)c1cc(=O)n(CC(=O)Nc2ccc3ocnc3c2)nc1N1CCC2(CCCC2)C1 [Example 197] | 56 | – | – |
| – | 273 | CC1CC=C(c2ccc(=O)n(CC(=O)N3CC=C(c4cncc(F)c4)CC3)n2)CC1 (racemic) [Example 397] | – | 49 | – |
| – | 28 | COc1ccc2c(c1)CCN2C(=O)Cn1nc(C2=CCC(C)(C)CC2)ccc1=O [Example 430] | – | 22 | – |
| 227 | – | O=C(Cn1nc(N2CCC3(CCC3)C2)ccc1=O)Nc1ccc2ocnc2c1 [Example 131] | 7 | – | – |
| 95 | – | COc1ccc2c(c1)CCN2C(=O)Cn1nc(N2CCC(C)CC2)ccc1=O [Example 183] | 0 | – | – |
| – | 136 | CC1CC=C(c2ccc(=O)n(CC(=O)N3CCc4cc(N5CCOCC5)ccc43)n2)CC1 (racemic) [Example 246] | – | 145 | – |
| – | 10 | Cc1ccc(-c2ccc(=O)n(CC(=O)Nc3ccc4ocnc4c3)n2)cn1 [Example 452] | – | 2 | – |
